# Measurements from paper PMC12104055 (Frontiers in Pharmacology, 2025).
# Like-named read-outs stand apart in the source and are kept apart here.
# Experiments:
# [1] = Stability in rat plasma under different storage conditions; type: in vitro ADME; details: for Stability RE (%), 4°C / Stability RE (%), Room temperature / Stability RE (%), Three freeze-thaw / Stability RE (%), −80°C: AST-5902 table, rat plasma; for Stability RE (%), 4°C: 4°C (24 h); for Stability RE (%), Room temperature: room temperature (4 h); for Stability RE (%), −80°C: −80°C long-term storage
# Description: The stability of the method was assessed through the determination of low, medium and high concentration rat plasma quality control samples under various storage conditions. […] The stability of the samples was determined by the precision of measurement results, and the samples were considered stable when the CV% and RE% were both below 15%.
# [2] = Drug interaction study: pharmacokinetics of firmonertinib and AST-5902 in rats with or without nirmatrelvir and ritonavir (paxlovid); type: in vivo, Sprague-Dawley (SD) rats; details: for AUC(0-inf) / AUC(0-t) / Cmax / Tmax / half-life / CL/F / MRT last / MRT inf / Vd/F: male, Sprague-Dawley, rat, plasma, po, 7.2 mg/kg, rat plasma; for CL/F: read-out: CLz/F (converted); for MRT last: read-out: MRT(0-t); for MRT inf: read-out: MRT(0-∞); for Vd/F: read-out: Vz/F
# Description: The experimental animals for pharmacokinetics were eighteen male Sprague-Dawley (SD) rats (6–8 weeks old), weighing 180–220 g, purchased from Beijing Vital River Laboratory Animal Technology Co., Ltd. All animal-related experimental operations and care were performed in accordance with the Guide for the Care and Use of Laboratory Animals and were approved by the Animal Research Ethics Committee of Wenzhou Medical University (wydw2022-0184). All SD rats were kept in an SPF animal laboratory and were provided with adequate feed and water until all rats reached the required body weight for the experiment. […] Eighteen SD rats were randomly and equally divided into three groups of six rats each. Group C rats (long-term administration group) were given 55 mg/kg nirmatrelvir and 20 mg/kg ritonavir by gavage every 12 h for 5 days. Groups B (single dose administration group) and A (control group) were also given the same amount of 0.5% CMC-Na every 12 h for 5 days. Prior to the pharmacokinetic experiments, all rats were fasted for 12 h, but drinking water was not prohibited. On the day of the experiment, 55 mg/kg nirmatrelvir and 20 mg/kg ritonavir were given once by gavage to rats in group B and group C. The same dose of 0.5% CMC-Na was given to group A rats. […] Blood was collected using heparin lithium-anticoagulant tubes and then centrifuged for 10 min at 13,000 rpm at 4°C. Subsequently, the upper plasma fraction was transferred to a clean centrifuge tube and placed in a −80°C refrigerator for storage until detection.
# The pharmacokinetic parameters of three groups were analyzed by single factor analysis of variance using SPSS 28.0 software. A p value of less than 0.05 were considered significant difference between the two groups.
# [3] = Group A control: single 7.2 mg/kg firmonertinib by gavage alone
# [4] = Group B: single dose 55 mg/kg nirmatrelvir and 20 mg/kg ritonavir, then 7.2 mg/kg firmonertinib by gavage
# [5] = Group C: 5 days twice a day 55 mg/kg nirmatrelvir and 20 mg/kg ritonavir, then 7.2 mg/kg firmonertinib by gavage
# [6] = rats, long-term nirmatrelvir and ritonavir vs firmonertinib monotherapy group
# [7] = rats, single dose nirmatrelvir and ritonavir vs firmonertinib monotherapy group
structure (smiles),measurement,setting,value
C=CC(=O)Nc1cc(Nc2nccc(-c3cn(C)c4ccccc34)n2)c(OCC(F)(F)F)nc1N(C)CCNC [AST-5902],"Stability RE (%), 4°C",[1]; 0.2 ng/mL,−1.94%
same,"Stability RE (%), Room temperature",[1]; 0.2 ng/mL,4.37%
same,"Stability RE (%), Three freeze-thaw",[1]; 0.2 ng/mL,1.93%
same,"Stability RE (%), −80°C",[1]; 0.2 ng/mL,0.97%
same,"Stability RE (%), 4°C",[1]; 5 ng/mL,−1.36%
same,"Stability RE (%), Room temperature",[1]; 5 ng/mL,1.25%
same,"Stability RE (%), Three freeze-thaw",[1]; 5 ng/mL,5.50%
same,"Stability RE (%), −80°C",[1]; 5 ng/mL,3.06%
same,"Stability RE (%), 4°C",[1]; 40 ng/mL,0.00%
same,"Stability RE (%), Room temperature",[1]; 40 ng/mL,0.31%
same,"Stability RE (%), Three freeze-thaw",[1]; 40 ng/mL,−0.91%
same,"Stability RE (%), −80°C",[1]; 40 ng/mL,−0.53%
same,Stability in rat plasma,[1]; short-term and long-term storage conditions,remain stable
same,AUC(0-inf),[2]; [3],405 ± 60.4 ng·h/mL
same,AUC(0-t),[2]; [3],387 ± 58.2 ng·h/mL
same,Cmax,[2]; [3],39 ± 2.46 ng/mL
same,Tmax,[2]; [3],5.33 ± 1.03 h
same,half-life,[2]; [3],4.94 ± 0.98 h
same,CL/F,[2]; [3],302 mL/min/kg
same,MRT last,[2]; [3],8.37 ± 0.39 h
same,MRT inf,[2]; [3],9.35 ± 0.4 h
same,Vd/F,[2]; [3],129 ± 35.5 L/kg
same,AUC(0-inf),[2]; [4],185 ± 147 ng·h/mL
same,AUC(0-t),[2]; [4],122 ± 15 ng·h/mL
same,Cmax,[2]; [4],9.79 ± 1.7 ng/mL
same,Tmax,[2]; [4],8.33 ± 2.94 h
same,half-life,[2]; [4],6.14 ± 4.31 h
same,CL/F,[2]; [4],851 mL/min/kg
same,MRT last,[2]; [4],8.94 ± 0.62 h
same,MRT inf,[2]; [4],8.73 ± 2.41 h
same,Vd/F,[2]; [4],362 ± 62.9 L/kg
same,AUC(0-inf),[2]; [5],125 ± 13.2 ng·h/mL
same,AUC(0-t),[2]; [5],122 ± 12.8 ng·h/mL
same,Cmax,[2]; [5],10.2 ± 1.42 ng/mL
same,Tmax,[2]; [5],8.67 ± 1.63 h
same,half-life,[2]; [5],3.65 ± 0.58 h
same,CL/F,[2]; [5],969 mL/min/kg
same,MRT last,[2]; [5],9.22 ± 0.19 h
same,MRT inf,[2]; [5],9.7 ± 0.33 h
same,Vd/F,[2]; [5],306 ± 56.7 L/kg
same,Difference in main pharmacokinetic data between single-dose and long-term nirmatrelvir and ritonavir groups,"[2]; rats, P > 0.05",no significant differences
same,AUC(0-∞) of AST-5902 decreased by,[2]; [6],70%
same,CLz/F of AST-5902 increased by,[2]; [6],3.2 times
same,Cmax of AST-5902 decreased by,[2]; [6],74%
same,Tmax of AST-5902 increased by,[2]; [6],1.62 times
same,Vz/F of AST-5902 increased by,[2]; [6],2.36 times
same,AUC(0-∞) of AST-5902 decreased by,[2]; [7],55%
same,CLz/F of AST-5902 increased by,[2]; [7],2.81 times
same,Cmax of AST-5902 decreased by,[2]; [7],75%
same,Tmax of AST-5902 increased by,[2]; [7],1.56 times
same,Vz/F of AST-5902 increased by,[2]; [7],2.79 times
same,AUC(0-t) of AST-5902 decreased by,"[2]; rats, single-dose and long-term nirmatrelvir and ritonavir groups vs firmonertinib monotherapy group",69%
